Test results taken from paper PMC8037910, “Effect of Chronic Administration of 5-(3-chlorophenyl)-4-Hexyl-2,4 -Dihydro-3H-1,2,4-Triazole-3-Thione (TP-315)—A New Anticonvulsant Drug Candidate—On Living Organisms” (International Journal of Molecular Sciences, 2021).
Read-outs that look alike come from different tables or passages of the source.

Key:
[1] = PAMPA BBB (parallel artificial membrane permeability assay); format: in vitro ADME; settings: pH 7.4, 37 °C, donor 20 µg/mL, read-out: Permeability Coefficients (Pe × 10−6) ± SD
Experimental: BBB permeability of the compounds was investigated by using a PAMPA method (parallel artificial membrane permeability assay). The PAMPA system consisted of a 96-well microfilter plate and a 96-well filter plate and was divided into two chambers: a donor at the bottom and an acceptor at the top, separated by a 120-μm-thick microfilter disc coated with BBB lipid solution (Pion, Inc.). The solutions of each compound were prepared in dimethyl sulfoxide (DMSO) at 4 mg/mL concentration and then diluted with Prisma buffer (pH = 7.4) to obtain the donor drug solution with the final nominal concentration of 20 µg/mL. The donor solutions were placed on the donor plate. Acceptor plate contained Brain Sink Buffer (BSB). The plates were put together and incubated at 37 °C for 180 min in a humidity-saturated atmosphere. The concentrations of the compounds were determined with a UV-reader (Multiskan GO, Thermo Scientific) at 254 nm in the donor and acceptor compartments.
The permeability values (Pe) were calculated by using the following equation:(1) −ln(1−CA/Cequilibrium)/S×(1/VD+1/VA)×t where VD: donor volume, VA: acceptor volume, Cequilibrium: equilibrium concentration Cequilibrium=CD×VD+ CA×VA/VD+VA, CD: donor concentration, CA: acceptor concentration, S: membrane area, and t: incubation time (in seconds). High BBB permeation (CNS+) was expected for compounds with Pe > 5.19, whereas low BBB permeation (CNS-) was expected for compounds with Pe < 2.07 [21].

[2] = test system: maximal electroshock-induced seizure (MES); parameters: method as in PMID 23291122, PMID 25226229, PMID 25090118; settings: mice, cited from earlier work
mice [3] = test system: mice; parameters: method as in PMID 23291122, PMID 25226229, PMID 25090118; settings: rotarod test (†), the values are: TD50, cited from earlier work
[4] = target: batrachotoxin-binding site on voltage-gated sodium channels; parameters: method as in PMID 25226229, PMID 30594731, PMID 28824309; settings: read-out: Affinity towards Batrachotoxin-Binding Site on Sodium Channels IC50 ± SEM; cited from earlier work
[5] = test system: 6 Hz psychomotor seizure model; parameters: method as in PMID 32253957; settings: mice, cited from earlier work
mice [6] = test system: mice; parameters: method as in PMID 23291122, PMID 25226229, PMID 25090118; unit not given here; settings: chimney test, cited from earlier work

SMILES | Papp at 180 min, 20 µg/mL [1] | Anticonvulsant Activity in MES Test ED50 ± S.E. ([2]; pretreatment time 15 min) | Anticonvulsant Activity in MES Test ED50 ± S.E. ([2]; pretreatment time 30 min) | Anticonvulsant Activity in MES Test ED50 ± S.E. ([2]; pretreatment time 60 min) | Anticonvulsant Activity in MES Test ED50 ± S.E. ([2]; pretreatment time 120 min) | Neurotoxicity in Chimney or Rotarod (†) Tests in Mice (mice [3]; pretreatment time 15 min) | Neurotoxicity in Chimney or Rotarod (†) Tests in Mice (mice [3]; pretreatment time 30 min) | Neurotoxicity in Chimney or Rotarod (†) Tests in Mice (mice [3]; pretreatment time 60 min) | Neurotoxicity in Chimney or Rotarod (†) Tests in Mice (mice [3]; pretreatment time 120 min) | IC50 [4] | Anticonvulsant Activity in 6 Hz Test ED50 ± SEM ([5]; pretreatment time 15 min) | Anticonvulsant Activity in 6 Hz Test ED50 ± SEM ([5]; pretreatment time 30 min) | Anticonvulsant Activity in 6 Hz Test ED50 ± SEM ([5]; pretreatment time 60 min) | Anticonvulsant Activity in 6 Hz Test ED50 ± SEM ([5]; pretreatment time 120 min) | Neurotoxicity in Chimney or Rotarod (†) Tests in Mice (mice [6]; pretreatment time 15 min) | Neurotoxicity in Chimney or Rotarod (†) Tests in Mice (mice [6]; pretreatment time 30 min) | Neurotoxicity in Chimney or Rotarod (†) Tests in Mice (mice [6]; pretreatment time 60 min) | Neurotoxicity in Chimney or Rotarod (†) Tests in Mice (mice [6]; pretreatment time 120 min)
CC(C)Cn1c(Cc2cccc(Cl)c2)n[nH]c1=S [TPR-22, 5-(3-Chlorobenzyl)-4-isobutyl-2,4-dihydro-3H-1,2,4-triazole-3-thione] | 34.4 ± 8.3 ×10⁻⁶ cm/s | 130.4 ± 17.6 mg/kg | 130.4 ± 17.6 mg/kg | 159.9 ± 21.9 mg/kg | 195.7 ± 21.5 mg/kg | 306 ± 19.8 mg/kg | 314 ± 22 mg/kg | 326 ± 23.1 mg/kg | 330 ± 24.2 mg/kg | 18.9 ± 1.2 µM |  |  |  |  |  |  |  | 
Cc1ccc(-n2c(-c3cccc(Cl)c3)n[nH]c2=S)cc1 [TP-10, 5-(3-Chlorophenyl)-4-(4-methylphenyl)-2,4-dihydro-3H-1,2,4-triazole-3-thione] | 40.2 ± 5.1 ×10⁻⁶ cm/s | 57.0 ± 9.4 mg/kg | 74.5 ± 8.1 mg/kg | 187.1 ± 18.8 mg/kg | 281.4 ± 13.6 mg/kg |  |  |  |  |  | 62.6 ± 13.2 mg/kg | 61.1 ± 9.7 mg/kg | 169.7 ± 18.5 mg/kg | 167.6 ± 17.4 mg/kg | 338.1 ± 12.0 | 338.1 ± 14.7 | 333.4 ± 18.6 | 395.1 ± 25.2
CCCCCCn1c(Cc2cccc(Cl)c2)n[nH]c1=S [TP-427, 5-(3-Chlorobenzyl)-4-hexyl-2,4-dihydro-3H-1,2,4-triazole-3-thione] | 477 ± 39.6 ×10⁻⁶ cm/s | 72.1 ± 7.0 mg/kg | 74.5 ± 8.1 mg/kg | 83.6 ± 3.8 mg/kg | 97.9 ± 10.9 mg/kg |  |  |  |  | 6.17 ± 1.43 µM | 40.9 ± 6.4 mg/kg | 46.6 ± 8.2 mg/kg | 51.6 ± 6.9 mg/kg | 64.9 ± 5.6 mg/kg | >1000 | >1000 | 540.7 ± 20.9 | 548.5 ± 21.4
CCCC(CCC)C(=O)O [Valproic acid, reference compound] | 15.4 ± 4.71 ×10⁻⁶ cm/s |  |  |  |  |  |  |  |  |  |  |  |  |  |  |  |  | 
